Assay results as given in a melting point compilation (Tetko et al.).

| melting point | Structure (SMILES) |
| --- | --- |
| 149 °C | NC(=O)C=Cc1ccccc1 |
| 186 °C | O=C(O)c1cccc(-c2ccccc2)c1O |
| 40 to 47 °C | CC(=O)c1ccc(-c2ccccc2OC(F)(F)F)o1 |
| 118 to 120 °C | CCOc1ccc(-c2nnc3n2NCS3)cc1 |
| 199 °C | O=S(=O)(O)c1ccc2ccc(S(=O)(=O)O)cc2c1 |
| 193 to 194 °C | O=P(c1ccccc1)(c1ccccc1)C1C=C(c2ccc(Br)cc2)OC(c2ccc(Br)cc2)=C1 |
| -28 °C | CSCc1ccccc1 |
| 162 to 164 °C | CCC1Oc2ccccc2C(=O)NC1=O (configuration not stated) |
| 41 to 45 °C | OC1CCOc2ccccc21 (configuration not stated) |
| 115 °C | COc1ccc(C(Cl)=C(c2ccc(OC)cc2)c2ccc(OC)cc2)cc1 |
| 37 °C | Nc1ccc(Cc2ccccc2)cc1 |
| 212 °C | O=C(C(=O)c1cc(Br)ccc1O)c1cc(Br)ccc1O |
| 222 to 223 °C | O=C(C(=S)Nc1ccc(Cl)cc1)c1ccccc1 |
| 104 °C | Cc1ccc(C(c2ccc(C)o2)c2cc(I)ccc2O)o1 |
| 240 °C | CC(=O)Nc1ccc(/C(=C\c2ccccc2NC(C)=O)C(=O)O)cc1 |
| 114 °C | COc1ccccc1OCCNCC(O)COc1cccc2[nH]c3ccccc3c12 (configuration not stated) |
| 156 °C | COc1ccc(C=Cc2cc(OC)cc(=O)o2)cc1 |
| 118 °C | CC1(C(=O)O)CCC(CCc2ccccc2)C1(C)C (configuration not stated) |
| 50 to 53 °C | CCCCCCCCC(=O)Oc1ccc(/N=N/c2ccc(CCCC)cc2)cc1 |
| 105 °C | Brc1cccc2c(/C=N/Nc3ccccc3)cccc12 |
| 154 to 156 °C | Brc1ccc(-c2csnn2)cc1 |
| 235 °C | O=c1c(C2CC(c3ccc(-c4ccc(Br)cc4)cc3)Cc3ccccc32)c(O)sc2ccccc12 (configuration not stated) |
| 89 to 91 °C | Cc1cc(Cl)ccc1Oc1ncccc1[N+](=O)[O-] |
| 232 °C | O=C(O)C(=Cc1ccc(Cl)cc1)C(=Cc1ccc(Cl)cc1)C(=O)O |

The remaining lines, values behind:

| Structure (SMILES) | melting point |
| --- | --- |
| CCOC(=O)c1c[nH]c2c(c1=O)CNN2C | 138 to 140 °C |
| O=C1CCOc2ccc(Cl)cc21 | 102 °C |
| O=C(O)C(O)C(F)(F)F (configuration not stated) | 69 °C |
| Cn1c(S(=O)(=O)O)nc2ccccc21 | 341 °C |
| Brc1ccc(Oc2ccccc2Br)c(Br)c1 | < 20 °C |
| CC(=O)NC1Cc2ccccc21 (configuration not stated) | 123 °C |
| C[Si]1(C)O[Si](C)(C)O[Si](C)(C)O[Si](C)(C)O[Si](C)(C)O1 | -38 °C |
| Fc1c(F)c(F)c(S)c(F)c1F | -24 °C |
| N#Cc1ccoc1 | 29 to 31 °C |
| FC(F)(F)c1n[nH]c(=S)[nH]1 | 161 to 164 °C |
| CC(c1cc2ccccc2s1)N(O)C(N)=O (configuration not stated) | 157 °C |
| NC(CCCC(N)C(=O)O)C(=O)O (configuration not stated) | 300 °C |
| O=C(O)CCC(=O)c1ccc(C2CCCCC2)c(Cl)c1 | 163 °C |
| Cc1cc2ncc(C(=O)O)c(C)n2n1 | 250 to 251 °C |
| CC(C(=O)O)N(C)C(=O)OC(C)(C)C (configuration not stated) | 90 °C |
| CCOC(=O)c1c(NC(=O)Nc2cccc(Cl)c2)sc2c1CCCC2 | 164 to 165 °C |
| COC(=O)C=Cc1ccc(C=CC(=O)OC)c(N)c1 | 159 °C |
| NCCNC(=O)CCn1cnc2c(N)ncnc21 | 196 °C |
| CCOC(=O)c1cc(-c2ccco2)[nH]n1 | 137 to 138 °C |
| Oc1cc(Cl)c(Cl)c(Cl)c1 | 101 °C |
| O=[N+]([O-])c1ccc(Cl)cc1CO | 77 to 82 °C |
| CC(C)(C)OC(=O)C1CC(=O)CN1C(=O)OC(C)(C)C (configuration not stated) | 66 °C |

| Structure (SMILES) | melting point |
| --- | --- |
| COP(=O)(OC)C(O)C(Cl)(Cl)Cl (configuration not stated) | 80 °C |
| Cc1cc(CCl)c(CCl)cc1C | 104 to 106 °C |
| Cc1ccccc1C(=O)Nc1cccc(OC(C)C)c1 | 92.5 °C |
| CC(=O)Oc1ccc(N/C=C2\C(=O)C3(C)CCC2C3(C)C)cc1 (configuration not stated) | 222 °C |
| CNC(=O)COc1ccccc1OCC(O)CNC(C)(C)C (configuration not stated) | 96.5 °C |
| Fc1ccc(F)c(F)c1F | -42 °C |
| Cn1nc(-c2cccs2)cc1C(=O)O | 173 to 174 °C |
| CC(=O)Nc1cccc(N)c1C(=O)O | 184 °C |
| CC(C)(C)OC(=O)N1CCC(C(N)=S)CC1 | 130 to 131 °C |
| Nc1cccc(N2CCOCC2)c1 | 118 to 119 °C |
| Fc1ncccc1I | 45 to 46 °C |
| N#Cc1ccccc1CN1CCOCC1 | 49 to 50 °C |
| N#Cc1cc(O)cc(O)c1 | 188 °C |
| Cc1c(C)c(CCl)c(C)c(CCl)c1C | 117 °C |
| Cc1ccc(CO)cc1C | 64 °C |
| O=[N+]([O-])c1cc([N+](=O)[O-])cc(C(F)(F)F)c1 | 51 °C |
| CC1CCCC(=O)C1 (configuration not stated) | -73 °C |
| NC(=O)c1ccc(C(F)(F)F)nc1O | 220 to 223 °C |
| CC1=CCC(C(C)(C)O)CC1 (configuration not stated) | 40.5 °C |
| Oc1c(I)cc(Cl)c2cccnc12 | 178 °C |
| CC(C)(C)N(NC(=O)c1ccccc1)C(=O)c1ccccc1C(F)(F)F | 172 °C |
